Where two headings read alike, the source gives them in different places.
Columns and labels:
[1] = system: caterpillars of the owlet moth (Spodoptera frugiperda); experiment: Spodoptera frugiperda test; assay type: in vivo; details: for destruction: after 3 days, active compound concentration 0.001%, cabbage leaves dipped; for mortality at 0.001 %: Spodoptera frugiperda, in Brassica oleracea, 72 h, read-out: destruction
[2] = system: mustard beetle larvae (Phaedon cochleariae); experiment: Phaedon larvae test; details: for mortality at 0.001 %: Phaedon cochleariae, in Brassica oleracea, 72 h, read-out: destruction
[3] = system: green peach aphids (Myzus persicae); experiment: Myzus test; assay type: in vivo; details: for mortality at 0.001 %: Myzus persicae, 24 h, read-out: destruction
Description: (§1) Solvent: 7 parts by weight of dimethylformamide

[4] = system: larvae of the green rice leaf hopper (Nephotettix cincticeps); experiment: Nephotettix test; assay type: in vivo; details: 144 h, read-out: destruction
Description: as §1

[5] = system: caterpillars of the diamondback moth (Plutella maculipennis); experiment: Plutella test; assay type: in vivo; details: for mortality at 0.01 %: Plutella, in Brassica oleracea, 72 h, read-out: destruction
Description: as §1

[6] = Lg. P, octanol/water partition coefficient determined by reversed phase HPLC; assay type: physicochemical
Description: *^) Lg. P = Logarithm of the partition coefficient P of the substance
between the solvents octanol and water, determined experimentally by […]

[7] = after 1 day, active compound concentration 0.001%, infested broad bean seedlings dipped
[8] = octanol/water, determined experimentally by reversed phase HPLC, read-out: Lg. P (logarithm of the partition coefficient P)

## CCC(C)(C)N1CC([N+](=O)[O-])=C2N(Cc3cnc(Cl)s3)CCN2C1 [(A), reference compound]
[1]
  destruction: no action
[2]; after 3 days, active compound concentration 0.001%, cabbage leaves dipped
  destruction: no action

## COC(CN1CC([N+](=O)[O-])=C2N(Cc3cnc(Cl)s3)CCN2C1)OC [(B), reference compound]
[1]
  mortality at 0.001 %: 30%
[2]
  mortality at 0.001 %: 30%

## CCCCCCN1CC([N+](=O)[O-])=C2N(Cc3cnc(Cl)s3)CCN2C1 [(C), reference compound]
[1]
  mortality at 0.001 %: 30%
[2]
  mortality at 0.001 %: 40%

## CN1CC([N+](=O)[O-])=C2N(Cc3cnc(Cl)s3)CCN2C1 [(D), reference compound]
[1]
  destruction: no action

## CCOC(=O)CCN1CC([N+](=O)[O-])=C2N(Cc3ccc(Cl)nc3)CCN2C1 [(E), reference compound]
[3]; in Vicia faba
  mortality at 0.001 %: 10%
[4]
  mortality at 0.0001 %: 20%
[5]; after 3 days, active compound concentration 0.01%, cabbage leaves dipped
  destruction: no action
[2]
  mortality at 0.001 %: 20%

## O=[N+]([O-])C1=C2N(Cc3ccc(Cl)nc3)CCN2CN(Cc2ccc(Cl)cc2)C1 [(F), reference compound]
[3]; [7]
  destruction: no action
[1]
  destruction: no action

## CCOC(=O)CN1CC([N+](=O)[O-])=C2N(Cc3ccc(Cl)nc3)CCN2C1 [(G), reference compound]
[1]
  mortality at 0.001 %: 30%

## COC(=O)CN1CC([N+](=O)[O-])=C2N(Cc3ccc(Cl)nc3)CCN2C1 [Example 1, 6,7-dihydro-1-(2-chloropyridin-5-yl-methyl)-6-methoxycarbonyl-methyl-8-nitro-(5H)-imidazolidino-[2,3-f]-pyrimidine]
[3]; in Vicia faba
  mortality at 0.001 %: 99%
[5]
  mortality at 0.01 %: 100%
[2]
  mortality at 0.001 %: 100%

## O=C(CN1CC([N+](=O)[O-])=C2N(Cc3ccc(Cl)nc3)CCN2C1)Nc1ccccc1 [Example 3]
[2]
  mortality at 0.001 %: 100%

## O=C(O)CCCCCN1CC([N+](=O)[O-])=C2N(Cc3ccc(Cl)nc3)CCN2C1 [Example 4]
[3]; in Vicia faba
  mortality at 0.001 %: 80%
[6]; reversed phase hplc
  chromatographic logP: 1.07
[2]
  mortality at 0.001 %: 100%

## CCOC(=O)CCCN1CC([N+](=O)[O-])=C2N(Cc3ccc(Cl)nc3)CCN2C1 [Example 5]
[6]; reversed phase hplc
  chromatographic logP: 0.94

## COC(=O)CN1CC([N+](=O)[O-])=C2N(Cc3cnc(Cl)s3)CCN2C1 [Example 6]
[3]; in Vicia faba
  mortality at 0.001 %: 90%
[4]
  mortality at 0.0001 %: 100%
[5]
  mortality at 0.01 %: 100%

## O=C(CN1CC([N+](=O)[O-])=C2N(Cc3ccc(Cl)nc3)CCN2C1)OCc1ccc(Cl)nc1 [Example 7]
[4]
  mortality at 0.0001 %: 100%
[2]
  mortality at 0.001 %: 100%

## CC(C)OC(=O)CN1CC([N+](=O)[O-])=C2N(Cc3ccc(Cl)nc3)CCN2C1 [Example 9]
[4]
  mortality at 0.0001 %: 100%
[1]
  mortality at 0.001 %: 100%
[5]
  mortality at 0.01 %: 100%
[2]
  mortality at 0.001 %: 100%

## Cc1ccc(COC(=O)CN2CC([N+](=O)[O-])=C3N(Cc4ccc(Cl)nc4)CCN3C2)cc1 [Example 10]
[4]
  mortality at 0.0001 %: 100%
[1]
  mortality at 0.001 %: 100%
[5]
  mortality at 0.01 %: 100%
[2]
  mortality at 0.001 %: 100%

## CCCCCCCCOC(=O)CN1CC([N+](=O)[O-])=C2N(Cc3ccc(Cl)nc3)CCN2C1 [Example 11]
[1]
  mortality at 0.001 %: 100%
[5]
  mortality at 0.01 %: 100%
[2]
  mortality at 0.001 %: 100%

## O=C(CN1CC([N+](=O)[O-])=C2N(Cc3ccc(Cl)nc3)CCN2C1)OCc1ccc(Cl)c(Cl)c1 [Example 12]
[1]
  mortality at 0.001 %: 100%
[5]
  mortality at 0.01 %: 100%
[2]
  mortality at 0.001 %: 100%

## O=C(CN1CC([N+](=O)[O-])=C2N(Cc3ccc(Cl)nc3)CCN2C1)OCc1c(Cl)cccc1Cl [Example 13]
[5]
  mortality at 0.01 %: 100%

## O=C(CN1CC([N+](=O)[O-])=C2N(Cc3ccc(Cl)nc3)CCN2C1)OCc1ccc(Cl)cc1Cl [Example 14]
[4]
  mortality at 0.0001 %: 100%
[1]
  mortality at 0.001 %: 100%
[5]
  mortality at 0.01 %: 100%
[2]
  mortality at 0.001 %: 100%

## COC(=O)CCCN1CC([N+](=O)[O-])=C2N(Cc3ccc(Cl)nc3)CCN2C1 [Example 15]
[3]; in Vicia faba
  mortality at 0.001 %: 98%
[4]
  mortality at 0.0001 %: 100%
[1]
  mortality at 0.001 %: 100%
[5]
  mortality at 0.01 %: 100%
[6]; reversed phase hplc
  chromatographic logP: 1.12

## COC(=O)CCCN1CC([N+](=O)[O-])=C2N(Cc3cnc(Cl)s3)CCN2C1 [Example 16]
[3]; [7]
  mortality at 0.001 %: 90%
[4]
  mortality at 0.0001 %: 100%
[6]; [8]
  chromatographic logP: 1.13

## CCOC(=O)CCCN1CC([N+](=O)[O-])=C2N(Cc3cnc(Cl)s3)CCN2C1 [Example 17]
[4]
  mortality at 0.0001 %: 100%
[5]
  mortality at 0.01 %: 100%
[6]; [8]
  chromatographic logP: 1.35

## COC(=O)CCCCN1CC([N+](=O)[O-])=C2N(Cc3ccc(Cl)nc3)CCN2C1 [Example 19]
[3]; in Vicia faba
  mortality at 0.001 %: 95%
[1]
  mortality at 0.001 %: 100%
[5]
  mortality at 0.01 %: 100%
[2]
  mortality at 0.001 %: 100%

## COC(=O)CCCCCCCN1CC([N+](=O)[O-])=C2N(Cc3cnc(Cl)s3)CCN2C1 [Example 20]
[3]; [7]
  mortality at 0.001 %: 100%
[1]
  mortality at 0.001 %: 100%
[2]
  mortality at 0.001 %: 100%

## COC(=O)CCCCCCCN1CC([N+](=O)[O-])=C2N(Cc3ccc(Cl)nc3)CCN2C1 [Example 21]
[5]
  mortality at 0.01 %: 100%
[6]; [8]
  chromatographic logP: 1.73

## CC(C)OC(=O)CCN1CC([N+](=O)[O-])=C2N(Cc3ccc(Cl)nc3)CCN2C1 [Example 23]
[6]; reversed phase hplc
  chromatographic logP: 1.51
[2]
  mortality at 0.001 %: 100%

## CCOC(=O)C(Cc1ccccc1)N1CC([N+](=O)[O-])=C2N(Cc3ccc(Cl)nc3)CCN2C1 (stereo not shown) [Example 27]
[6]; [8]
  chromatographic logP: 1.99

## COC(=O)C(C(C)C)N1CC([N+](=O)[O-])=C2N(Cc3ccc(Cl)nc3)CCN2C1 (stereo not shown) [Example 28]
[6]; reversed phase hplc
  chromatographic logP: 1.55

Source: patent US6177431A, “Tetrahydropyrimidine derivatives” (priority 1996, dated 2001)
